From patent publication EP1147080B1 (Wyeth Holdings Corporation, priority 1999, dated 2000)
Read-outs that look alike come from different tables or passages of the source.

How the values were obtained:
MMP-13 = MMP-13 (Homo sapiens, UniProt P45452); test: MMP-13 inhibition (thiopeptide or fluorescent peptide substrate); assay type: biochemical; settings: for inhibition at 10 µM: % @ 10µM per footnote a
Source text: Alternatively, a fluorescent peptide substrate is used.

THP-1 cells = test: Human monocytic THP-1 cell differentiation assay for soluble proteins (THP soluble protein assay), LPS-stimulated, TNF-α ELISA; assay type: cell-based; settings: for THP (% inhibition): Table 1, concentration not given; for inhibition at 3 µM: Homo sapiens, THP-1; at 3 uM; percent change from vehicle positive control; read-out: TNFalpha at 3 uM) THP (percent change)
MMP-9 = MMP-9 (Homo sapiens, UniProt P14780); test: MMP-9 inhibition (thiopeptide or fluorescent peptide substrate); settings: for inhibition at 10 µM: read-out: MMP9
MMP-9, sequence (P14780 94-707): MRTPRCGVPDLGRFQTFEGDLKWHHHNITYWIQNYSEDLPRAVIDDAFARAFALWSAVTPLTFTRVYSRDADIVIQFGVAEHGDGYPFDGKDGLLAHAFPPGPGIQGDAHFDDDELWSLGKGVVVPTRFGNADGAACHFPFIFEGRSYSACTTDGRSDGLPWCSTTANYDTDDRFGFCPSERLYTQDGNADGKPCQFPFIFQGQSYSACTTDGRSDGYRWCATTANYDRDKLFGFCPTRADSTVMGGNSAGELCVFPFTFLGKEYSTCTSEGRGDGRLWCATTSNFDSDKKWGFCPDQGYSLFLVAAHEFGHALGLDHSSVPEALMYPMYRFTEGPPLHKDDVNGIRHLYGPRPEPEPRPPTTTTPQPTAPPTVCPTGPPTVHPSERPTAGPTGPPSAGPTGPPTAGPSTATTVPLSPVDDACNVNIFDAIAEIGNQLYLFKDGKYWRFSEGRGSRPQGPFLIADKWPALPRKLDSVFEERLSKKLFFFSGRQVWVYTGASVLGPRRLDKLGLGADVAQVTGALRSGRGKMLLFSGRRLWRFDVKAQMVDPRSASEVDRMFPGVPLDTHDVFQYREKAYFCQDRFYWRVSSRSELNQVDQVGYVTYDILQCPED
Experimental: (§1) The enzyme activity is measured by the rate of the color increase. The thiopeptide substrate is made up fresh as a 20 mM stock in 100% DMSO and the DTNB is dissolved in 100% DMSO as a 100 mM stock and stored in the dark at room temperature. Both the substrate and DTNB are diluted together to 1 mM with substrate buffer (50 mM HEPES pH 7.5, 5 mM CaCl2) before use. The stock of enzyme is diluted with buffer (50 mM HEPES, pH 7.5, 5 mM CaCl2, 0.02% Brij) to the desired final concentration.
(§2) Alternatively, a fluorescent peptide substrate is used. In this test procedure, the peptide substrate contains a fluorescent group and a quenching group. Upon cleavage of the substrate by an MMP, the fluorescence that is generated is quantitated on the fluorescence plate reader. The assay is run in HCBC assay buffer (50mM HEPES, pH 7.0, 5 mM Ca^+2, 0.02% Brij, 0.5% Cysteine), with human recombinant MMP-1, MMP-9, or MMP-13. The substrate is dissolved in methanol and stored frozen in 1 mM aliquots. For the assay, substrate and enzymes are diluted in HCBC buffer to the desired concentrations. Compounds are added to the 96 well plate containing enzyme and the reaction is started by the addition of substrate.
(§3) For either the thiopeptide or fluorescent peptide test procedures, the slope of the line is calculated and represents the reaction rate. […] The mean (x±sem) of the control rate is calculated and compared for statistical significance (p<0.05) with drug-treated rates using Dunnett's multiple comparison test.

MMP-1 = biological target: T1, MMP-1 (Homo sapiens, UniProt P03956); test: MMP-1 inhibition (thiopeptide or fluorescent peptide substrate); settings: for inhibition at 10 µM: read-out: MMP1
T1 sequence (P03956 100-469): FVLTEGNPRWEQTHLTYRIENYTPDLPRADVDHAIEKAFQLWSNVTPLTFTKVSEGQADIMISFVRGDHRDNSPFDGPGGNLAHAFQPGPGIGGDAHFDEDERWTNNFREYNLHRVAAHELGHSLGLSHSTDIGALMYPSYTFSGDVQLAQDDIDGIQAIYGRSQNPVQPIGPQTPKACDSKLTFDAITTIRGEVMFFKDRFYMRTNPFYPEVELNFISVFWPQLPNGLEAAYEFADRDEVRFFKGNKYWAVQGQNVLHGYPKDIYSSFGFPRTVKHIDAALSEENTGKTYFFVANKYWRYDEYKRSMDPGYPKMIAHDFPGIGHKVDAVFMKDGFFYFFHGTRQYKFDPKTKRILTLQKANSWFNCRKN
Experimental: as §1, §2, §3

[1] = biological target: TNF-α converting enzyme (TACE) (Homo sapiens, UniProt P78536); test: Test procedure for measuring TACE inhibition (fluorescent peptidyl substrate); assay type: biochemical
TNF-α converting enzyme (TACE), sequence (P78536 215-824): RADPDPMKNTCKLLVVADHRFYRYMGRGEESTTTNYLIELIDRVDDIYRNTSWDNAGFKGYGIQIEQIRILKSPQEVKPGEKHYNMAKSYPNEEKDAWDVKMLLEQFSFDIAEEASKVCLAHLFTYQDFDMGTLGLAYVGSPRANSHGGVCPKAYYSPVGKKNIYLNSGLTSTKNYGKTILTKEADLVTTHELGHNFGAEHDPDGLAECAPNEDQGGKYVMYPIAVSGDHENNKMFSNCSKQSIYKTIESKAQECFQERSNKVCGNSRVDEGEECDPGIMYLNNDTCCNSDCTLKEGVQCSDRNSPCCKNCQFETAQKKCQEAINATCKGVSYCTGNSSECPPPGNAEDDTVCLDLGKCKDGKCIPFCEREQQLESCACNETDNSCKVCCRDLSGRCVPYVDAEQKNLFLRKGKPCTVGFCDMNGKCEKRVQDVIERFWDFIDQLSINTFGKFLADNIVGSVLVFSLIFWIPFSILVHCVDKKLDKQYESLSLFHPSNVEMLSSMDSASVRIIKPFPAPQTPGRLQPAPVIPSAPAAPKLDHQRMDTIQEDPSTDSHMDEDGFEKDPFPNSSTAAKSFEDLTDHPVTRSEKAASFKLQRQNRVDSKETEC

[2] = second table, IC50 (nM) per footnote a

Row | Compound | IC50 (MMP-13; Table 1, read-out: MMP13 IC50) [µM] | THP (% inhibition) (THP-1 cells) [%] | IC50 (MMP-9) [µM] | IC50 (MMP-1) [µM] | IC50 ([1]; Table 1) [nM] | IC50 (MMP-13; IC50, read-out: MMP13) [µM] | inhibition at 3 µM (THP-1 cells) [%] | inhibition at 10 µM (MMP-9) [%] | inhibition at 10 µM (MMP-1) [%] | IC50 [1, 2] [nM] | inhibition at 10 µM (MMP-13; read-out: MMP13) [%]
1 | CC#CCOc1ccc([S@@+]([O-])[C@@H](CCCCCC)C(=O)NO)cc1 [Example 8, (S)-2-[(S)-[4-(2-Butynyloxy)phenylsulfinyl)]-N-hydroxyoctanamide] | 0.15 | 35 | 1 | 3.2 | 12.4 | – | – | – | – | – | –
2 | CC#CCOc1ccc(S(=O)(=O)C(C(=O)NO)c2ccc(Cl)cc2)cc1 (centres unmarked) [Example 82, 2-{[4-(2-butynyloxy)phenyl]sulfonyl}-2-(4-chlorophenyl)-N-hydroxyacetamide] | – | – | – | – | – | 5.06 | 14 | 38 | 27.1 | 108 | –
3 | CC#CCOc1ccc(SC(CCCCCC)C(=O)NO)cc1 (centres unmarked) [Example 6, 2-(4-But-2-ynyloxy-phenylsulfanyl)-octanoic acid hydroxamide] | 2 | 5 | 3 | 15 | 105 | – | – | – | – | – | –
4 | CC#CCOc1ccc(S(=O)(=O)C(C(=O)NO)c2ccc(F)cc2)cc1 (centres unmarked) [Example 97, 2-{[4-(2-butynyloxy)phenyl]sulfonyl}-2-(4-fluorophenyl)-N-hydroxyacetamide] | – | – | – | – | – | – | 10 | 0.5 | 0.5 | 109 | 47.4
5 | CC#CCOc1ccc(S(=O)(=O)C(C(=O)NO)C(C)C)cc1 (centres unmarked) [Example 110, 2-{[4-{2-butynyloxy)phenyl]sulfonyl}-2-isopropyl-N-hydroxyacetamide] | – | – | 5.14 | – | – | 1.26 | 25 | – | 39.6 | 17 | –
6 | CC#CCOc1ccc(S(=O)(=O)C(C)(Cc2cccnc2)C(=O)NO)cc1 (centres unmarked) [Example 3, 2-(4-But-2-ynyloxy-phenylsulfonyl)-N-hydroxy-2-methyl-3-pyridin-3-ylpropionamide] | 0.069 | 14 | 0.142 | 1.4 | 15.7 | – | – | – | – | – | –
7 | CC#CCOc1ccc(SC(C(=O)NO)c2ccccc2)cc1 (centres unmarked) [Example 111, 2-{[4-(2-Butynyloxy)phenyl]sulfanyl}-2-phenyl-N-hydroxyacetamide] | – | – | – | – | – | – | -10 | 13.5 | 6.6 | 50 | 0.8
